Values joined by “and” are separate entries in the source; they are usually repeats but may differ in a detail not shown here. Equal values may be shown once. Read-outs that look alike come from different tables or passages of the source. Where a SMILES comes first, the peptide text is derived from it. [ ]: non-standard residue; d: D form. dNMeI = CC[C@@H](C)[C@@H](NC)C(=O)O; NMeL = CN[C@@H](CC(C)C)C(=O)O
Experiment: Pharmacokinetics and oral bioavailability of D11.3 in male Swiss albino mice (IV, PO, SQ)
Format: in vivo
Conditions: for MRT last: read-out: MRT0-last
Protocol: In vivo bioavailability assays were conducted in mice and rats. D8.3.p1 and D10.1 were studied in female Balb/C mice by van Voorhis group at University of Washington. D11.2 was evaluated in Sprague Dawley (SD) rats by Robert Griffin’s group at Takeda Pharmaceuticals. D11.3 was studied in the male swiss albino mice by the contract research organization, GVK Biosciences Pvt. Ltd., Hyderabad, India. All animals used in these studies were handled in strict accordance with practices made to minimize suffering. All animal experiments conducted at the University of Washington, USA, and Takeda Pharmaceuticals, USA were approved by the Institutional Animal Care and Use Committee. Animal studies at GVK Biosciences were reviewed and approved by the Institutional Animal Ethics Committee of GVK Biosciences.
We selected four designed macrocycles with diverse structures and in vitro rates of permeability for in vivo oral bioavailability studies in the rodent models. Due to the intensive resource requirements for such studies, these studies were conducted by three different research groups. D8.3.p1 and D10.1 were studied in female Balb/C mice by van Voorhis group at University of Washington. D11.2 was evaluated in Sprague Dawley (SD) rats by Robert Griffin’s group at Takeda Pharmaceuticals. D11.3 was studied in the male swiss albino mice by the contract research organization, GVK Biosciences Pvt. Ltd., Hyderabad, India.
Pharmacokinetic properties of D11.3 were evaluated by the contract research organization, GVK Bio in Swiss Albino male mice after dosing the peptides through oral gavage (PO), subcutaneous (SQ), and intravenous (IV) routes. Plasma samples were collected at multiple time points up to 24 hours. Animals were dosed with 27 gauge needle through tail vein for IV, gastric gavage needle for PO, and 27 gauge needle on dorsal side for SQ. Plasma concentrations were determined using LC-MS/MS based quantification. Pharmacokinetic parameters were determined using non-compartmental analysis with Phoenix software version 8.1.
Dosing vehicle: DMSO (10%) + 10% solutol in PBS (90%) (IV, PO, SQ)
Dose volume: […] (PO, SQ); […] (IV)
Dose: 10 mg/kg (PO) 1 mg/kg (IV), 5mg/kg (SQ)

[1] = male, Swiss albino, mouse, plasma, IV 1.00 mg/kg
[2] = male, Swiss albino, mouse, plasma, PO 10.00 mg/kg
[3] = male, Swiss albino, mouse, plasma, SC 5.00 mg/kg

SMILES: CC[C@@H](C)[C@H]1NC(=O)[C@H]([C@@H](C)CC)NC(=O)[C@H](CC(C)C)N(C)C(=O)[C@H]2CCCN2C(=O)[C@@H]([C@H](C)CC)NC(=O)[C@@H]([C@H](C)CC)N(C)C(=O)[C@H](CC(C)C)NC(=O)[C@H]2CCCN2C(=O)[C@@H]2CCCN2C(=O)[C@H](C(C)C)NC(=O)[C@H]2CCCN2C1=O [Design D11.3, VAL PRO DPRO LEU *DILE DILE DPRO *LEU ILE DILE DPRO] (cyclo(I[dI][dP]VP[dP]L[dNMeI][dI][dP][NMeL]))
- AUCExtra (IV 1.00 mg/kg): 3.09%
- Plasma concentration (IV 1.00 mg/kg, 0.25 h, individual mice M1, M2, M3, 1 mg/kg): 3305.02 ng/mL and 3779.15 ng/mL and 2973.54 ng/mL
- Plasma concentration (IV 1.00 mg/kg, 1 h, individual mice M1, M2, M3, 1 mg/kg): 931.71 ng/mL and 1218.22 ng/mL and 1283.47 ng/mL
- Plasma concentration (IV 1.00 mg/kg, 3 h, individual mice M1, M2, M3, 1 mg/kg): 887.86 ng/mL and 328.77 ng/mL and 318.62 ng/mL
- Plasma concentration (IV 1.00 mg/kg, 5 h, individual mice M1, M2, M3, 1 mg/kg): 240.02 ng/mL and 271.55 ng/mL and 289.17 ng/mL
- Plasma concentration (IV 1.00 mg/kg, 8 h, individual mice M1, M2, M3, 1 mg/kg): 399.46 ng/mL and 124.26 ng/mL and 182.53 ng/mL
- Plasma concentration (IV 1.00 mg/kg, 24 h, individual mice M1, M2, M3, 1 mg/kg): 17.65 ng/mL and 30.97 ng/mL and 34.16 ng/mL
- health of animals during the study (IV 1 mg/kg, PO 10 mg/kg, SQ 5 mg/kg): healthy throughout the duration of the study
- AUCExtra (PO 10.00 mg/kg): 1.91%
- Plasma concentration (PO 10.00 mg/kg, 0.08 h, individual mice M1, M2, M3, 10 mg/kg): 47.49 ng/mL and 76.49 ng/mL and 84.94 ng/mL
- Plasma concentration (PO 10.00 mg/kg, 0.25 h, individual mice M1, M2, M3, 10 mg/kg): 454 ng/mL and 804.64 ng/mL and 992.29 ng/mL
- Plasma concentration (PO 10.00 mg/kg, 0.5 h, individual mice M1, M2, M3, 10 mg/kg): 2858.02 ng/mL and 2832.99 ng/mL and 1880.71 ng/mL
- Plasma concentration (PO 10.00 mg/kg, 1 h, individual mice M1, M2, M3, 10 mg/kg): 2950.38 ng/mL and 3417.67 ng/mL and 2525.44 ng/mL
- Plasma concentration (PO 10.00 mg/kg, 3 h, individual mice M1, M2, M3, 10 mg/kg): 3249.94 ng/mL and 3660.57 ng/mL and 3578.88 ng/mL
- Plasma concentration (PO 10.00 mg/kg, 5 h, individual mice M1, M2, M3, 10 mg/kg): 3313.72 ng/mL and 2427.94 ng/mL and 1866.9 ng/mL
- Plasma concentration (PO 10.00 mg/kg, 8 h, individual mice M1, M2, M3, 10 mg/kg): 1232.5 ng/mL and 1764.28 ng/mL and 1439.78 ng/mL
- Plasma concentration (PO 10.00 mg/kg, 24 h, individual mice M1, M2, M3, 10 mg/kg): 177.35 ng/mL and 48.47 ng/mL and 59.29 ng/mL
- AUCExtra (SC 5.00 mg/kg): 30.33%
- Plasma concentration (SC 5.00 mg/kg, 0.08 h, Mean): 10.15 ng/mL
- Plasma concentration (SC 5.00 mg/kg, 0.25 h, Mean): 35.04 ng/mL
- Plasma concentration (SC 5.00 mg/kg, 0.5 h, Mean): 38.67 ng/mL
- Plasma concentration (SC 5.00 mg/kg, 0.5 h, individual mice M1, M2, M3, 5 mg/kg): 23.29 ng/mL and 70.26 ng/mL and 22.46 ng/mL
- Plasma concentration (SC 5.00 mg/kg, 1 h, individual mice M1, M2, M3, 5 mg/kg): 52.72 ng/mL and 45.05 ng/mL and 34.59 ng/mL
- Plasma concentration (SC 5.00 mg/kg, 3 h, individual mice M1, M2, M3, 5 mg/kg): 141.22 ng/mL and 103.85 ng/mL and 139.25 ng/mL
- Plasma concentration (SC 5.00 mg/kg, 24 h, Mean): 50.51 ng/mL
- level at 0.08 h (male, Swiss Albino, mouse, plasma, iv, 1 mg/kg, IV 1.00 mg/kg, 0.08 h, individual mice M1, M2, M3, read-out: Plasma concentration): 3320 ng/mL
- level at 0.5 h (male, Swiss Albino, mouse, plasma, iv, 1 mg/kg, IV 1.00 mg/kg, 0.5 h, individual mice M1, M2, M3, read-out: Plasma concentration): 2570 ng/mL
- level at 5 h (male, Swiss albino, mouse, plasma, sc, 5 mg/kg, SC 5.00 mg/kg, 5 h, individual mice M1, M2, M3, read-out: Plasma concentration): 117 ng/mL
- level at 8 h (male, Swiss albino, mouse, plasma, sc, 5 mg/kg, SC 5.00 mg/kg, 8 h, individual mice M1, M2, M3, read-out: Plasma concentration): 153 ng/mL
- AUC(0-inf) [1]: 7190 ng·h/mL
- AUC(0-t) [1]: 6970 ng·h/mL
- C0 [1]: 3960 ng/mL
- Vd [1]: 1.12 L/kg
- clearance [1]: 2.32 mL/min/kg
- AUC(0-inf) [2]: 28800 ng·h/mL
- AUC(0-t) [2]: 28200 ng·h/mL
- Cmax [2]: 3500 ng/mL
- Tmax [2]: 3 h
- bioavailability (male, Swiss albino, mouse, plasma, PO 10.00 mg/kg vs IV 1.00 mg/kg, read-out: F (oral bioavailability)): 40% and 40.1%
- AUC(0-inf) [3]: 3050 ng·h/mL
- AUC(0-t) [3]: 2120 ng·h/mL
- Cmax [3]: 148 ng/mL
- Tmax [3]: 5 h
- half-life (mouse, in vivo, IV 1.00 mg/kg): 5.58 h
- MRT last (mouse, in vivo, IV 1.00 mg/kg): 4.64 h
- MRT last (mouse, in vivo, PO 10.00 mg/kg): 6.32 h
- MRT last (mouse, in vivo, SC 5.00 mg/kg): 10.7 h

From PMC9490236, “Accurate de novo design of membrane-traversing macrocycles” (Cell, 2022)
